Source: patent publication US12365850B2, “Water-miscible functional fluid, undiluted stock of water-miscible functional fluid, sterilizer for water-miscible functional fluid, and method of sterilizing water-miscible function fluid” (priority 2020, dated 2025)
Where two headings read alike, the source gives them in different places. Values belong to the molecule of their own block, whether it stands above or below them.

What was measured:
[1] = pH drop suppression test of water-miscible cutting fluid (circulation and blue LED irradiation); type: physicochemical
bacteria = experiment: Photosterilization test of neutral photosensitizers (bacterial count after light irradiation); type: cell-based
[2] = 100%×(pH at preparation−pH after continuing use)/(pH at preparation), riboflavin cutting fluid with the named antioxidant
[3] = class by pH change rate, riboflavin cutting fluid with the named antioxidant
[4] = riboflavin cutting fluid containing the named antioxidant, one month, Table 3 (same values as Table 2)
[5] = wavelength 450 nm, irradiance 100 μW/cm2, light intensity 10 J/cm2, photosensitizer 50 ppm (Lumichrome 20 ppm)
[6] = wavelength 450 nm, irradiance 100 μW/cm2, light intensity 30 J/cm2, photosensitizer 50 ppm (Lumichrome 20 ppm)
[7] = wavelength 450 nm, irradiance 100 μW/cm2, light intensity 50 J/cm2, photosensitizer 50 ppm (Lumichrome 20 ppm)
[8] = wavelength 450 nm, irradiance 100 μW/cm2, light intensity 100 J/cm2, photosensitizer 50 ppm (Lumichrome 20 ppm)
[9] = wavelength 450 nm, irradiance 100 μW/cm2, light intensity 200 J/cm2, photosensitizer 50 ppm (Lumichrome 20 ppm)
[10] = wavelength 450 nm, irradiance 100 μW/cm2, light intensity 400 J/cm2, photosensitizer 50 ppm (Lumichrome 20 ppm)

Structure (SMILES): Cc1cc2nc3c(=O)[nH]c(=O)nc-3n(C[C@H](O)[C@H](O)[C@H](O)CO)c2cc1C [Example 1, Riboflavin]
- change in the bacterial count due to the light irradiation (bacteria; result in words): a decrease in the bacterial count was found
- Bacterial count (bacteria; wavelength 275 nm, irradiance 100 μW/cm2, light intensity 10 J/cm2, photosensitizer 50 ppm): ++ (bacterial count was 1.0×10^6 CFU/ml to 1.4×10^7 CFU/ml)
- Bacterial count (bacteria; wavelength 275 nm, irradiance 100 μW/cm2, light intensity 30 J/cm2, photosensitizer 50 ppm): ++ (bacterial count was 1.0×10^6 CFU/ml to 1.4×10^7 CFU/ml)
- Bacterial count (bacteria; wavelength 275 nm, irradiance 100 μW/cm2, light intensity 50 J/cm2, photosensitizer 50 ppm): + (bacterial count was at least 1.0×10^2 CFU/ml and less than 1.0×10^6 CFU/ml)
- Bacterial count (bacteria; wavelength 275 nm, irradiance 100 μW/cm2, light intensity 100 J/cm2, photosensitizer 50 ppm): + (bacterial count was at least 1.0×10^2 CFU/ml and less than 1.0×10^6 CFU/ml)
- Bacterial count (bacteria; wavelength 275 nm, irradiance 100 μW/cm2, light intensity 200 J/cm2, photosensitizer 50 ppm): + (bacterial count was at least 1.0×10^2 CFU/ml and less than 1.0×10^6 CFU/ml)
- Bacterial count (bacteria; wavelength 275 nm, irradiance 100 μW/cm2, light intensity 400 J/cm2, photosensitizer 50 ppm): − (bacterial count was at least 0 and less than 1.0×10^2 CFU/mil)
- Bacterial count (bacteria; wavelength 380 nm, irradiance 1200 μW/cm2, light intensity 10 J/cm2, photosensitizer 50 ppm): ++ (bacterial count was 1.0×10^6 CFU/ml to 1.4×10^7 CFU/ml)
- Bacterial count (bacteria; wavelength 380 nm, irradiance 1200 μW/cm2, light intensity 30 J/cm2, photosensitizer 50 ppm): ++ (bacterial count was 1.0×10^6 CFU/ml to 1.4×10^7 CFU/ml)
- Bacterial count (bacteria; wavelength 380 nm, irradiance 1200 μW/cm2, light intensity 50 J/cm2, photosensitizer 50 ppm): ++ (bacterial count was 1.0×10^6 CFU/ml to 1.4×10^7 CFU/ml)
- Bacterial count (bacteria; wavelength 380 nm, irradiance 1200 μW/cm2, light intensity 100 J/cm2, photosensitizer 50 ppm): + (bacterial count was at least 1.0×10^2 CFU/ml and less than 1.0×10^6 CFU/ml)
- Bacterial count (bacteria; wavelength 380 nm, irradiance 1200 μW/cm2, light intensity 200 J/cm2, photosensitizer 50 ppm): + (bacterial count was at least 1.0×10^2 CFU/ml and less than 1.0×10^6 CFU/ml)
- Bacterial count (bacteria; wavelength 380 nm, irradiance 1200 μW/cm2, light intensity 400 J/cm2, photosensitizer 50 ppm): + (bacterial count was at least 1.0×10^2 CFU/ml and less than 1.0×10^6 CFU/ml)
- Bacterial count (bacteria; [5]): ++ (bacterial count was 1.0×10^6 CFU/ml to 1.4×10^7 CFU/ml)
- Bacterial count (bacteria; [6]): + (bacterial count was at least 1.0×10^2 CFU/ml and less than 1.0×10^6 CFU/ml)
- Bacterial count (bacteria; [7]): + (bacterial count was at least 1.0×10^2 CFU/ml and less than 1.0×10^6 CFU/ml)
- Bacterial count (bacteria; [8]): + (bacterial count was at least 1.0×10^2 CFU/ml and less than 1.0×10^6 CFU/ml)
- Bacterial count (bacteria; [9]): − (bacterial count was at least 0 and less than 1.0×10^2 CFU/mil)
- Bacterial count (bacteria; [10]): − (bacterial count was at least 0 and less than 1.0×10^2 CFU/mil)
- Bacterial count (bacteria; wavelength 500 nm, irradiance 100 μW/cm2, light intensity 10 J/cm2, photosensitizer 50 ppm): ++ (bacterial count was 1.0×10^6 CFU/ml to 1.4×10^7 CFU/ml)
- Bacterial count (bacteria; wavelength 500 nm, irradiance 100 μW/cm2, light intensity 30 J/cm2, photosensitizer 50 ppm): ++ (bacterial count was 1.0×10^6 CFU/ml to 1.4×10^7 CFU/ml)
- Bacterial count (bacteria; wavelength 500 nm, irradiance 100 μW/cm2, light intensity 50 J/cm2, photosensitizer 50 ppm): ++ (bacterial count was 1.0×10^6 CFU/ml to 1.4×10^7 CFU/ml)
- Bacterial count (bacteria; wavelength 500 nm, irradiance 100 μW/cm2, light intensity 100 J/cm2, photosensitizer 50 ppm): ++ (bacterial count was 1.0×10^6 CFU/ml to 1.4×10^7 CFU/ml)
- Bacterial count (bacteria; wavelength 500 nm, irradiance 100 μW/cm2, light intensity 200 J/cm2, photosensitizer 50 ppm): + (bacterial count was at least 1.0×10^2 CFU/ml and less than 1.0×10^6 CFU/ml)
- Bacterial count (bacteria; wavelength 500 nm, irradiance 100 μW/cm2, light intensity 400 J/cm2, photosensitizer 50 ppm): + (bacterial count was at least 1.0×10^2 CFU/ml and less than 1.0×10^6 CFU/ml)

Structure (SMILES): CC(C)(C)c1cc(CCC(=O)OCC(COC(=O)CCc2cc(C(C)(C)C)c(O)c(C(C)(C)C)c2)(COC(=O)CCc2cc(C(C)(C)C)c(O)c(C(C)(C)C)c2)COC(=O)CCc2cc(C(C)(C)C)c(O)c(C(C)(C)C)c2)cc(C(C)(C)C)c1O [Irganox 1010]
- pH change rate (%) [1, 2]: 5.8%
- Evaluation of pH drop supression [1, 3]: A (pH change rate of 15% or lower)
- pH change [1, 4]: 0.5

Structure (SMILES): O=C([O-])CN(CCN(CC(=O)[O-])CC(=O)O)CC(=O)O.[Na+].[Na+] [Disodium edetate]
- Evaluation of pH drop supression [1]: A (key: A: pH change rate of 15% or lower; B: pH change rate higher than 15% and at most 20%; C: pH change rate higher than 20% and at most 30%; D: pH change rate higher than 30%)
- pH change [1]: 0.8
- pH change rate (%) [1]: 9.3%

Structure (SMILES): CC(C)(C)c1ccc(OP(Oc2ccc(C(C)(C)C)cc2C(C)(C)C)Oc2ccc(C(C)(C)C)cc2C(C)(C)C)c(C(C)(C)C)c1 [Tris(2,4-di-tert-butylphenyl) phosphite]
- Evaluation of pH drop supression [1]: A (key: A: pH change rate of 15% or lower; B: pH change rate higher than 15% and at most 20%; C: pH change rate higher than 20% and at most 30%; D: pH change rate higher than 30%)
- pH change [1]: 0.4
- pH change rate (%) [1]: 4.7%

Structure (SMILES): Cc1cc2nc3[nH]c(=O)[nH]c(=O)c3nc2cc1C [Example 2, Lumichrome]
- Bacterial count (bacteria; [5]): ++ (bacterial count was 1.0×10^6 CFU/ml to 1.4×10^7 CFU/ml)
- Bacterial count (bacteria; [6]): + (bacterial count was at least 1.0×10^2 CFU/ml and less than 1.0×10^6 CFU/ml)
- Bacterial count (bacteria; [7]): − (bacterial count was at least 0 and less than 1.0×10^2 CFU/mil)
- Bacterial count (bacteria; [8]): − (bacterial count was at least 0 and less than 1.0×10^2 CFU/mil)
- Bacterial count (bacteria; [9]): − (bacterial count was at least 0 and less than 1.0×10^2 CFU/mil)
- Bacterial count (bacteria; [10]): − (bacterial count was at least 0 and less than 1.0×10^2 CFU/mil)

Structure (SMILES): CCCC(=O)OCC(OC(=O)CCC)C(OC(=O)CCC)C(Cn1c2nc(=O)[nH]c(=O)c-2nc2cc(C)c(C)cc21)OC(=O)CCC (stereo not shown) [Example 7, Riboflavin butyrate]
- Bacterial count (bacteria; [5]): ++ (bacterial count was 1.0×10^6 CFU/ml to 1.4×10^7 CFU/ml)
- Bacterial count (bacteria; [6]): + (bacterial count was at least 1.0×10^2 CFU/ml and less than 1.0×10^6 CFU/ml)
- Bacterial count (bacteria; [7]): + (bacterial count was at least 1.0×10^2 CFU/ml and less than 1.0×10^6 CFU/ml)
- Bacterial count (bacteria; [8]): + (bacterial count was at least 1.0×10^2 CFU/ml and less than 1.0×10^6 CFU/ml)
- Bacterial count (bacteria; [9]): − (bacterial count was at least 0 and less than 1.0×10^2 CFU/mil)
- Bacterial count (bacteria; [10]): − (bacterial count was at least 0 and less than 1.0×10^2 CFU/mil)

Structure (SMILES): Cc1cc2nc3c(=O)[nH]c(=O)nc-3n(CC(O)C(O)C(O)COP(=O)([O-])O)c2cc1C.[Na+] (stereo not shown) [Example 6, Riboflavin sodium phosphate]
- Bacterial count (bacteria; [5]): ++ (bacterial count was 1.0×10^6 CFU/ml to 1.4×10^7 CFU/ml)
- Bacterial count (bacteria; [6]): + (bacterial count was at least 1.0×10^2 CFU/ml and less than 1.0×10^6 CFU/ml)
- Bacterial count (bacteria; [7]): + (bacterial count was at least 1.0×10^2 CFU/ml and less than 1.0×10^6 CFU/ml)
- Bacterial count (bacteria; [8]): + (bacterial count was at least 1.0×10^2 CFU/ml and less than 1.0×10^6 CFU/ml)
- Bacterial count (bacteria; [9]): − (bacterial count was at least 0 and less than 1.0×10^2 CFU/mil)
- Bacterial count (bacteria; [10]): − (bacterial count was at least 0 and less than 1.0×10^2 CFU/mil)

Structure (SMILES): CC(O)CN(CC(C)O)CC(C)O (stereo not shown) [Triisopropanolamine]
- Evaluation of pH drop supression [1]: A (key: A: pH change rate of 15% or lower; B: pH change rate higher than 15% and at most 20%; C: pH change rate higher than 20% and at most 30%; D: pH change rate higher than 30%)
- pH change [1]: 0.8
- pH change rate (%) [1]: 9.3%

Structure (SMILES): Sc1nc2ccccc2[nH]1 [2-mercaptobenzimidazole]
- Evaluation of pH drop supression [1]: C (key: A: pH change rate of 15% or lower; B: pH change rate higher than 15% and at most 20%; C: pH change rate higher than 20% and at most 30%; D: pH change rate higher than 30%)
- pH change [1]: 2.4
- pH change rate (%) [1]: 27.9%

Now from value to molecule, other results behind:

- pH change rate (%) [1, 2]: 8.1%
- Evaluation of pH drop supression [1, 3]: A (pH change rate of 15% or lower)
- pH change [1, 4]: 0.7
Structure (SMILES): CC(O)CNCC(C)O (stereo not shown) [Di-isopropanolamine]

- pH change rate (%) [1, 2]: 24.4%
- pH change [1, 4]: 2.1
Structure (SMILES): O=C1O[C@H]([C@@H](O)CO)C([O-])=C1O.[Na+] [Sodium ascorbate]
- Evaluation of pH drop supression [1, 3]: C (pH change rate higher than 20% and at most 30%)

- pH change rate (%) [1, 2]: 7.0%
- Evaluation of pH drop supression [1, 3]: A (pH change rate of 15% or lower)
- pH change [1, 4]: 0.6
Structure (SMILES): Cc1c(C)c2c(c(C)c1O)CC[C@@](C)(CCC[C@H](C)CCC[C@H](C)CCCC(C)C)O2 [D-α-tocopherol]

- pH change rate (%) [1, 2]: 9.3%
- Evaluation of pH drop supression [1, 3]: A (pH change rate of 15% or lower)
- pH change [1, 4]: 0.8
Structure (SMILES): CC(C)(C)c1cc(Cn2c(=O)n(Cc3cc(C(C)(C)C)c(O)c(C(C)(C)C)c3)c(=O)n(Cc3cc(C(C)(C)C)c(O)c(C(C)(C)C)c3)c2=O)cc(C(C)(C)C)c1O [Irganox 3114]

- pH change rate (%) [1, 2]: 8.1%
- Evaluation of pH drop supression [1, 3]: A (pH change rate of 15% or lower)
- pH change [1, 4]: 0.7
Structure (SMILES): OCCNCCO [Diethanolamine]

- pH change rate (%) [1, 2]: 11.6%
- Evaluation of pH drop supression [1, 3]: A (pH change rate of 15% or lower)
- pH change [1, 4]: 1
Structure (SMILES): Cc1cc(C(C)(C)C)c(O)c(C(C)(C)C)c1 [BHT, butylated hydroxytoluene]

- pH change rate (%) [1, 2]: 4.7%
- Evaluation of pH drop supression [1, 3]: A (pH change rate of 15% or lower)
- pH change [1, 4]: 0.4
Structure (SMILES): CCC(C)Nc1ccc(NC(C)CC)cc1 (stereo not shown) [N,N′-Di-sec-butyl-1,4-phenylenediamine]

- pH change rate (%) [1, 2]: 17.4%
- pH change [1, 4]: 1.5
Structure (SMILES): NCCO [Monoethanol amine]
- Evaluation of pH drop supression [1, 3]: B (pH change rate higher than 15% and at most 20%)

- pH change rate (%) [1, 2]: 19.8%
- pH change [1, 4]: 1.7
Structure (SMILES): CC(O)CN (stereo not shown) [Monoisopropanolamine]
- Evaluation of pH drop supression [1, 3]: B (pH change rate higher than 15% and at most 20%)

- pH change rate (%) [1, 2]: 16.3%
- pH change [1, 4]: 1.4
Structure (SMILES): NCC1CCCC(CN)C1 (stereo not shown) [1,3-Bis(aminomethyl)cyclohexane]
- Evaluation of pH drop supression [1, 3]: B (pH change rate higher than 15% and at most 20%)
